# Publication PMC4638363, “Linear Interaction Energy Based Prediction of Cytochrome P450 1A2 Binding Affinities with Reliability Estimation” (PLoS ONE, 2015)
# Like-named read-outs stand apart in the source and are kept apart here.
# Assays:
# recombinant CYP 1A2 [1] = settings: cited from earlier work
# human CYP 1A2 [2] = biological target: T1, human CYP 1A2 (Homo sapiens, UniProt P05177)
# T1 sequence (P05177 1-516): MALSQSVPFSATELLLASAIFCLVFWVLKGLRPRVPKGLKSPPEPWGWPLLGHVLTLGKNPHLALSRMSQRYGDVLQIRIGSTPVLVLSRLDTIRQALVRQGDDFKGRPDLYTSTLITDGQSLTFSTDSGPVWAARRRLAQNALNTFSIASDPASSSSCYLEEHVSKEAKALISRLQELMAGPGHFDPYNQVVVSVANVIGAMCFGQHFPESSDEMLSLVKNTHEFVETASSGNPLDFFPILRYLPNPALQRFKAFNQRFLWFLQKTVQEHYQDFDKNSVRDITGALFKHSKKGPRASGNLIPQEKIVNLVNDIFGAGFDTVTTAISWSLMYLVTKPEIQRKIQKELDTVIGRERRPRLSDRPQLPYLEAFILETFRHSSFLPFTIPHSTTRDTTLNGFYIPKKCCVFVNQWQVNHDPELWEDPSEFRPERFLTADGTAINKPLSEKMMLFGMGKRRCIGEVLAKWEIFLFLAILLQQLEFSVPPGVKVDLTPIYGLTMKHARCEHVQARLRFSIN
# recombinant CYP 1A2 [3] = settings: from literature IC50, Source 3
# recombinant CYP 1A2 [4] = tested on: recombinant CYP 1A2
# human CYP 1A2 [5] = biological target: T1, human CYP 1A2; experiment: in-house CYP 1A2 inhibition assay with 7-methoxyresorufin as substrate (resorufin fluorescence); settings: for ΔΔG bind: difference in ΔG bind between literature and in-house determined values; for ΔG bind (inhouse): from in-house IC50 via Cheng-Prusoff and RTln(Ki)
# CYP 1A2 [6] = settings: Table A, Source 1; ref Bayer HealthCare databases for CYP inhibition (eTOX); cited from earlier work
# CYP 1A2 [7] = settings: literature; cited from earlier work
# [8] = Table A, Source 3, ref Korhonen et al., J. Med. Chem. 2005
# [9] = read-out: IC 50 (lit), Source 3, recombinant CYP 1A2, 7-ethoxyresorufin O-dealkylation
smiles,measurement,setting,value
"Cc1cc(C)c2ccccc2n1 [Compound 46, 2-4-Dimethylquinoline]",IC50,recombinant CYP 1A2 [1],2.4 µM
"CN1C(=O)CC[C@H]1c1cccnc1 [Compound 73, Cotinine]",Residual (ΔGbind^Obs—ΔGbind^Calc),human CYP 1A2 [2]; training set,1.84 kcal/mol
same,ΔGbind^Obs,recombinant CYP 1A2 [3]; training set,-3.51 kcal/mol
same,IC50,recombinant CYP 1A2 [1]; [8],5400 µM
"Fc1ccc2ccccc2c1 [Compound 32, 2-Fluoronaphthalene]",Residual (ΔGbind^Obs—ΔGbind^Calc),human CYP 1A2 [2]; training set,-1.34 kcal/mol
same,ΔGbind^Obs,recombinant CYP 1A2 [3]; training set,-6.33 kcal/mol
same,IC50,recombinant CYP 1A2 [1]; [8],49 µM
"c1ccc2c(c1)CCO2 [Compound 62, 2,3-Dihydrobenzofuran]",Residual (ΔGbind^Obs—ΔGbind^Calc),human CYP 1A2 [2]; training set,-0.096 kcal/mol
same,ΔGbind^Obs,recombinant CYP 1A2 [3]; training set,-4.42 kcal/mol
same,IC50,recombinant CYP 1A2 [1]; [8],1200 µM
"Cc1cc(C)oc(=O)c1 [Compound 72, 4,6-Dimethyl-α-pyron]",Residual (ΔGbind^Obs—ΔGbind^Calc),human CYP 1A2 [2],1.05 kcal/mol
same,ΔGbind^Obs,recombinant CYP 1A2 [3]; training set,-3.63 kcal/mol
same,IC50,recombinant CYP 1A2 [1],4500 µM
"Cc1ccc(C)c2ccccc12 [Compound 36, 1,4-Dimethylnaphthalene]",ΔGbind^Obs,recombinant CYP 1A2 [4]; human,-7.89 kcal/mol
same,Residual (ΔGbind^Obs—ΔGbind^Calc),human CYP 1A2 [2]; training set,-1.77 kcal/mol
same,IC50,recombinant CYP 1A2 [1]; [8],3.6 µM
"c1ccc2ccccc2c1 [Compound 27, Naphthalene]",Residual (ΔGbind^Obs—ΔGbind^Calc),human CYP 1A2 [2],-0.55 kcal/mol
same,ΔGbind^Obs,recombinant CYP 1A2 [3]; training set,-4.73 kcal/mol
same,IC50,recombinant CYP 1A2 [1]; [8],700 µM
"c1ccc(-c2ccccc2)cc1 [Compound 65, Biphenyl]",ΔGbind^Obs,recombinant CYP 1A2 [4]; human,-5.62 kcal/mol
same,Residual (ΔGbind^Obs—ΔGbind^Calc),human CYP 1A2 [2],-0.12 kcal/mol
same,IC50,recombinant CYP 1A2 [1],160 µM
"COc1ccc(C=O)cc1 [Compound 11, p-methoxybenzaldehyde]",ΔΔG bind,human CYP 1A2 [5],-0.239 kcal/mol
same,ΔG bind (inhouse),human CYP 1A2 [5],-5.07 ± 0.048 kcal/mol
same,IC50,human CYP 1A2 [5]; read-out: IC 50 (inhouse),410 ± 32 µM
same,ΔG bind (lit),recombinant CYP 1A2 [4],-5.31 ± 0.19 kcal/mol
same,ΔGbind^Obs,recombinant CYP 1A2 [4],-5.31 kcal/mol
same,"Residual (ΔGbind^Obs–ΔG bind ^Calc), error in prediction",human CYP 1A2 [2],-0.43 kcal/mol
same,IC50,recombinant CYP 1A2 [1]; [9],270 ± 85 µM
"Cc1ccc2ccccc2n1 [Compound 44, Quinaldine]",IC50,recombinant CYP 1A2 [1]; [8],40 µM
"Cc1ccc2c(C)cccc2c1 [Compound 40, 1,6-Dimethylnaphthalene]",ΔGbind^Obs,recombinant CYP 1A2 [4]; human,-6.74 kcal/mol
same,"Residual (ΔGbind^Obs–ΔG bind ^Calc), error in prediction",human CYP 1A2 [2]; test set,-0.454 kcal/mol
same,IC50,recombinant CYP 1A2 [1]; [8],25 µM
"O=c1[nH]c2ccccc2o1 [Compound 64, 2-Benzoxazolinone]",ΔGbind^Obs,recombinant CYP 1A2 [4]; human,-5.11 kcal/mol
same,Residual (ΔGbind^Obs—ΔGbind^Calc),human CYP 1A2 [2]; training set,0.19 kcal/mol
same,IC50,recombinant CYP 1A2 [1]; [8],370 µM
"c1ccc2c(c1)CCC2 [Compound 63, Indan]",ΔGbind^Obs,recombinant CYP 1A2 [4]; human,-4.88 kcal/mol
same,IC50,recombinant CYP 1A2 [1],550 µM
"CCCCc1ccccc1 [Compound 69, Butylbenzene]",ΔGbind^Obs,recombinant CYP 1A2 [4]; human,-3.75 kcal/mol
same,"Residual (ΔGbind^Obs–ΔG bind ^Calc), error in prediction",human CYP 1A2 [2]; test set,1.43 kcal/mol
same,IC50,recombinant CYP 1A2 [1]; [8],3700 µM
"CCc1ccc2ccccc2c1 [Compound 31, 2-Ethylnaphthalene]",ΔGbind^Obs,recombinant CYP 1A2 [4]; human,-6.91 kcal/mol
same,"Residual (ΔGbind^Obs–ΔG bind ^Calc), error in prediction",human CYP 1A2 [2]; test set,-0.789 kcal/mol
same,IC50,recombinant CYP 1A2 [1]; [8],19 µM
"Clc1ccccc1-c1ccccc1 [Compound 66, 2-Chlorobiphenyl]",ΔGbind^Obs,recombinant CYP 1A2 [4]; human,-5.4 kcal/mol
same,"Residual (ΔGbind^Obs–ΔG bind ^Calc), error in prediction",human CYP 1A2 [2]; test set,0.669 kcal/mol
same,IC50,recombinant CYP 1A2 [1]; [8],230 µM
"Cc1cnc2ccccc2c1 [Compound 45, 3-Methylquinoline]",IC50,recombinant CYP 1A2 [1]; [8],13 µM
"CC1CCC(=O)O1 (centres unmarked) [Compound 51, γ-Valerolactone]",ΔGbind^Obs,recombinant CYP 1A2 [4],-2.92 kcal/mol
same,Residual (ΔGbind^Obs—ΔGbind^Calc),human CYP 1A2 [2],0.86 kcal/mol
same,IC50,recombinant CYP 1A2 [1]; [8],15000 µM
"CCC1CCC(=O)O1 (centres unmarked) [Compound 52, γ-Caprolactone]",ΔGbind^Obs,recombinant CYP 1A2 [4]; human,-3.15 kcal/mol
same,Residual (ΔGbind^Obs—ΔGbind^Calc),human CYP 1A2 [2],0.956 kcal/mol
same,IC50,recombinant CYP 1A2 [1],9900 µM
"Cc1cccc2ccccc12 [Compound 28, 1-Methylnaphthalene]",ΔGbind^Obs,recombinant CYP 1A2 [4]; human,-5.86 kcal/mol
same,Residual (ΔGbind^Obs—ΔGbind^Calc),human CYP 1A2 [2]; training set,-0.502 kcal/mol
same,IC50,recombinant CYP 1A2 [1]; [8],110 µM
"Clc1ccc(-c2ccccc2)cc1 [Compound 67, 4-Chlorobiphenyl]",ΔGbind^Obs,recombinant CYP 1A2 [4]; human,-6.33 kcal/mol
same,Residual (ΔGbind^Obs—ΔGbind^Calc),human CYP 1A2 [2],0.024 kcal/mol
same,IC50,recombinant CYP 1A2 [1]; [8],49 µM
"Cc1ccc2ccccc2c1 [Compound 30, 2-Methylnaphthalene]",ΔGbind^Obs,recombinant CYP 1A2 [4]; human,-5.78 kcal/mol
same,Residual (ΔGbind^Obs—ΔGbind^Calc),human CYP 1A2 [2],-0.789 kcal/mol
same,IC50,recombinant CYP 1A2 [1],120 µM
"C#C[C@]1(O)CC[C@H]2[C@@H]3CCC4=Cc5oncc5C[C@]4(C)[C@H]3CC[C@@]21C [Compound 21, Danazol]",IC50,CYP 1A2 [6],45.3 µM
"Cc1cccc2c(C)cccc12 [Compound 39, 1,5-Dimethylnaphthalene]",ΔGbind^Obs,recombinant CYP 1A2 [4]; human,-6.43 kcal/mol
same,"Residual (ΔGbind^Obs–ΔG bind ^Calc), error in prediction",human CYP 1A2 [2],-0.478 kcal/mol
same,IC50,recombinant CYP 1A2 [1],42 µM
"CCCCC1CCCCC1 [Compound 68, Butylcyclohexane]",Residual (ΔGbind^Obs—ΔGbind^Calc),human CYP 1A2 [2]; training set,0.526 kcal/mol
same,ΔGbind^Obs,recombinant CYP 1A2 [3]; training set,-6.26 kcal/mol
same,IC50,recombinant CYP 1A2 [1]; [8],55 µM
"Cc1ccc2cccc(C)c2c1 [Compound 41, 1,7-Dimethylnaphthalene]",ΔGbind^Obs,recombinant CYP 1A2 [4]; human,-7.46 kcal/mol
same,"Residual (ΔGbind^Obs–ΔG bind ^Calc), error in prediction",human CYP 1A2 [2]; test set,-1.46 kcal/mol
same,IC50,recombinant CYP 1A2 [1]; [8],7.5 µM
"O=C1Cc2ccccc2O1 [Compound 60, 2-Coumarone]",ΔGbind^Obs,recombinant CYP 1A2 [4],-5.33 kcal/mol
same,Residual (ΔGbind^Obs—ΔGbind^Calc),human CYP 1A2 [2]; training set,-0.263 kcal/mol
same,IC50,recombinant CYP 1A2 [1]; [8],260 µM
"Cc1ccc2ccc(C)cc2c1 [Compound 43, 2,7-Dimethylnaphthalene]",ΔGbind^Obs,recombinant CYP 1A2 [4]; human,-6.17 kcal/mol
same,"Residual (ΔGbind^Obs–ΔG bind ^Calc), error in prediction",human CYP 1A2 [2]; test set,0 kcal/mol
same,IC50,recombinant CYP 1A2 [1]; [8],65 µM
"N[C@@H]1C[C@H]1c1ccccc1 (racemic) [Compound 15, Tranylcypromine]",IC50,CYP 1A2 [6],10.4 µM
"Clc1ccccc1C(c1ccccc1)(c1ccccc1)n1ccnc1 [Compound 22, Clotrimazole]",IC50,CYP 1A2 [6],5.83 µM
"COC(=O)[C@H](c1ccccc1Cl)N1CCc2sccc2C1 [Compound 19, Clopidogrel]",IC50,CYP 1A2 [6],24.2 µM
same,Reported inhibition mechanism,CYP 1A2 [7],Substrate^69
"Clc1cccc2ccccc12 [Compound 29, 1-Chloronaphthalene]",ΔGbind^Obs,recombinant CYP 1A2 [4]; human,-6.31 kcal/mol
same,"Residual (ΔGbind^Obs–ΔG bind ^Calc), error in prediction",human CYP 1A2 [2],-0.932 kcal/mol
same,IC50,recombinant CYP 1A2 [1]; [8],50 µM
"COC1=CC(=O)OC1 [Compound 71, 4-Methoxyfuran-2-(5H)-one]","Residual (ΔGbind^Obs–ΔG bind ^Calc), error in prediction",human CYP 1A2 [2]; test set,1.34 kcal/mol
same,ΔGbind^Obs,recombinant CYP 1A2 [3]; test set,-2.32 kcal/mol
same,IC50,recombinant CYP 1A2 [1],40000 µM
"O=C1CCC(c2ccccc2)O1 (centres unmarked) [Compound 70, γ-Phenyl-γ-butyrolactone]",ΔGbind^Obs,recombinant CYP 1A2 [4],-4.04 kcal/mol
same,Residual (ΔGbind^Obs—ΔGbind^Calc),human CYP 1A2 [2]; training set,1.36 kcal/mol
same,IC50,recombinant CYP 1A2 [1]; [8],2300 µM
"Fc1ccc([C@@H]2CCNC[C@H]2COc2ccc3c(c2)OCO3)cc1 [Compound 18, Paroxetine]",IC50,CYP 1A2 [6],23.5 µM
"Cc1ccc2cc(C)ccc2c1 [Compound 42, 2,6-Dimethylnaphthalene]",ΔGbind^Obs,recombinant CYP 1A2 [4]; human,-6.29 kcal/mol
same,Residual (ΔGbind^Obs—ΔGbind^Calc),human CYP 1A2 [2],-0.454 kcal/mol
same,IC50,recombinant CYP 1A2 [1],52 µM
"Oc1cccc2ccccc12 [Compound 9, 1-naphthol]",IC50,human CYP 1A2 [5],2 ± 0.7 µM
same,ΔΔG bind,human CYP 1A2 [5],0.287 kcal/mol
same,ΔG bind (inhouse),human CYP 1A2 [5],-8.25 ± 0.22 kcal/mol
same,ΔG bind (lit),recombinant CYP 1A2 [4]; human,-7.96 ± 0.14 kcal/mol
same,ΔGbind^Obs,recombinant CYP 1A2 [4]; human,-7.96 kcal/mol
same,"Residual (ΔGbind^Obs–ΔG bind ^Calc), error in prediction",human CYP 1A2 [2],-2.77 kcal/mol
same,IC50,recombinant CYP 1A2 [1]; [9],3.2 ± 0.8 µM
"Cc1cc2ccccc2cn1 [Compound 49, 3-Methylisoquinoline]",IC50,recombinant CYP 1A2 [1]; [8],21 µM
